Calls of active or inactive are those of the source.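 The calls were made as follows: active = compounds giving half or more protection of infected cells from virus-caused growth loss, again on retest; inactive = the rest.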
Tested on: CEM cells HIV-1 protection, formazan growth assay
Assay: NCI AIDS Antiviral Assay
Details: for IC50: measured here: growth of uninfected CEM cells
Method in brief: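 Human CEM cells, uninfected and HIV-1-infected, exposed to five drug concentrations; growth measured by soluble formazan assay and scored as percent protection from infection, with protecting compounds retested.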

Structure (SMILES)	EC50 [µM]	IC50 [µM]	outcome
C=C1C(=O)OC2CC(C)C3C=CC(=O)C3CC12 (configuration not stated)	> 200	0.537	
CCN(CC)CC[NH-].O=C([O-])[O-].O=C([O-])[O-].[Co+3].[K+]	> 200	18.6	
COc1c(F)c(F)c(/C(O)=C\c2nc3ccccc3[nH]c2=O)c(F)c1F	> 200	195	
O=C(O)c1ccc(CSc2ccccc2C(=O)O)c([N+](=O)[O-])c1	> 759	> 759	
CCCN(CCC)C(=O)c1c(N2CCN(C)CC2)c2cccnc2n2c(C)cnc12	> 200	> 200	
CCOC(=O)CCNC(=O)c1ccccc1SC(=O)CCCC[n+]1ccccc1	> 2	1.51	
O=C(O)CN1CCNCCN(CP(=O)(O)O)CC1	> 200	10.5	
CCOC(=O)c1c(NC(=O)c2ccccc2)c(C#N)c2n1CCCCC2	> 100	> 100	
COc1cc2c(cc1OC)C1CC(=O)C3=C(CCCC3)N1CC2 (configuration not stated)	> 200	91.2	
CC(=O)OCC1OC(n2c(C)c(C)c(C)c(C#N)c2=S)C(OC(C)=O)C(OC(C)=O)C1OC(C)=O (configuration not stated)	> 200	> 200	
O=C(Cn1c2c(c3ccccc31)CCCC2)N1CCCCC1	> 200	> 200	
O=C(N=Nc1ccc(Br)cc1)NNc1ccc(Br)cc1	> 200	12.9	
C1=Cc2nc1c(-c1ccccc1)c1ccc([n-]1)c(-c1ccccc1)c1nc(c(-c3ccncc3)c3ccc([n-]3)c2-c2ccccc2)C=C1.C1=Cc2nc1c(-c1ccccc1)c1ccc([n-]1)c(-c1ccccc1)c1nc(c(-c3ccncc3)c3ccc([n-]3)c2-c2ccccc2)C=C1.C1=Cc2nc1c(-c1ccccc1)c1ccc([n-]1)c(-c1ccccc1)c1nc(c(-c3ccncc3)c3ccc([n-]3)c2-c2ccccc2)C=C1.C1=Cc2nc1c(-c1ccccc1)c1ccc([n-]1)c(-c1ccccc1)c1nc(c(-c3ccncc3)c3ccc([n-]3)c2-c2ccccc2)C=C1.O=S(=O)([O-])C(F)(F)F.[Pt+2].[Zn+2].[Zn+2].[Zn+2].[Zn+2]	> 25.1	> 25.1	
CCN(CC)CCN(C(=O)c1ccc(F)cc1)c1ccccc1N	> 200	> 200	
O=c1[nH]cnc2c(NC3OC(CO)C(O)C3O)cccc12 (configuration not stated)			inactive
O=C1c2ccccc2C2(c3ccc(F)cc3)NCCN12 (configuration not stated)	> 200	186	
O=C1CN(Cc2ccc(Cl)cc2)CC(=O)N2Cc3ccccc3CN12	> 191	148	
CCCCCCCCCn1ccnc1NCCCCCCNc1nccn1CCCCCCCCC	> 7.24	3.63	
CC(=O)C(=Cc1ccc(C#N)cc1)C(C)=O	> 170	26.9	
CN(Cc1ccccc1)c1nc(=[N+](C)C)ss1			inactive
COC(OC)C1(c2ccccc2)Oc2ccccc2C1=O (configuration not stated)	> 166	81.3	

Structure (SMILES)	EC50 [µM]	IC50 [µM]	outcome
CCN(CC)CCCn1c(=O)c2cccnc2n2c3c(=O)n(C)c(=O)n(C)c3nc12	25.1	126	
Cc1cn(COCCCSc2ccccc2)c(=O)[nH]c1=O	21.9	166	
C=CC(=O)N1C/C(=C\c2ccc(F)cc2)C(=O)/C(=C/c2ccc(F)cc2)C1	> 0.2	0.162	
COc1ccc(-c2cc(=O)c3c(O)cc(O)c(-c4cc(-c5cc(=O)c6c(O)cc(OC)cc6o5)ccc4OC)c3o2)cc1	> 200	107	
C/C=C(C)/C=C/CC(C)CCC=C(C)C (configuration not stated)	> 200	85.1	
O=C(O)C1=C/C(=C(/c2ccccc2)c2cc(C(=O)O)c(O)c3ccccc23)c2ccccc2C1=O			inactive
[O-][n+]1c(-c2ccccc2)c2nc3ccccc3nc2c2ccccc21	> 39.8	> 39.8	
COC(=O)c1c(NC(=O)C(C)C)n[nH]c1NC(=O)C(C)C			inactive
COC1/C=C\OC2(C)Oc3c(C)c(O)c4c(O)c(c(/C=N\O)c(O)c4c3C2=O)NC(=O)/C(C)=C\C=C/C(C)C(O)C(C)C(O)C(C)C(OC(C)=O)C1C (configuration not stated)	> 77.6	74.1	
Nc1ncccc1N1C(=O)c2ccccc2C1=O	> 200	> 200	
Cc1ccccc1CC1(Br)CC(C)(C)c2ccccc2C1=O (configuration not stated)	> 200	29.5	
CS/C(c1ccccc1)=[N+](\[O-])Cc1ccccc1	> 646	457	
COC(=O)C1C2CC3C1C3C2C(=O)OC (configuration not stated)	> 200	> 200	
CN1C[C@H]2[C@@H](C1=O)[C@H](c1ccc([N+](=O)[O-])cc1)ON2C	> 200	> 200	
NCCCCC(NC(=O)C(Cc1cnc[nH]1)NC(=O)CN)C(=O)O.[Cu+2] (configuration not stated)	> 200	70.8	
CC(C)CC(C#N)C(N)=O (configuration not stated)	> 200	> 200	
C/C=C(\C(=O)OC)C1CC2OC(=O)C1(C=O)C13CCNC21N(C)c1ccccc13 (configuration not stated)	> 126	117	
C(=N\NC1=NCCN1)/c1ccc2ccccc2c1	> 200	22.9	
C/C=C(/C)C(=O)O[C@H]1C[C@@H]2[C@@H](O)c3occ(C)c3C[C@]2(C)[C@@H](C)C1	> 200	10.5	
O=C(O)COc1ccc(C(=O)/C(SS/C(C(=O)c2ccc(OCC(=O)O)c(Cl)c2Cl)=C2\C=C(c3ccc(Br)cc3)SS2)=C2/C=C(c3ccc(Br)cc3)SS2)c(Cl)c1Cl			inactive

— PubChem BioAssay AID179 (DTP/NCI, 2004)
